Data: patent publication US20250206751A1, “HETEROCYCLIC COMPOUND FOR INDUCING DEGRADATION OF G12D MUTANT KRAS PROTEIN” (Astellas Pharma Inc., priority 2022, published 2025)
pIC50: −log10 of the molar value.

Key:
[1] = test system: phosphorylation of threonine 202 (Thr202) and tyrosine 204 (Tyr204) of ERK; assay: ERK phosphorylation inhibitory effect by Cell ELISA in AsPC-1 (Test Example 2); format: cell-based, human; details: cultured overnight with compound, 1 μM trametinib taken as 0%
Method in brief: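 AsPC-1 cells (G12D KRAS) treated overnight with compound (10 points, 10 μM to 0.3 nM final), then glyoxal-fixed and immunostained for phospho-ERK with a fluorescent secondary read at 800 nm. IC50 by Sigmoid-Emax regression, with DMSO as 100% and 1 μM trametinib as 0%.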

[2] = molecular target: T1, KRAS G12D protein (Homo sapiens, UniProt P01116, G12D); assay: KRAS degradation activity by Cell ELISA in AsPC-1 (Test Example 1); format: cell-based; details: AsPC-1 cells, cultured overnight with compound, corrected with β-actin, read-out: DC50 (50% degradation concentration of the amounts of KRAS)
T1 construct: host or cells: AsPC-1
T1 sequence (P01116 1-188 isoform P01116-2 G12D): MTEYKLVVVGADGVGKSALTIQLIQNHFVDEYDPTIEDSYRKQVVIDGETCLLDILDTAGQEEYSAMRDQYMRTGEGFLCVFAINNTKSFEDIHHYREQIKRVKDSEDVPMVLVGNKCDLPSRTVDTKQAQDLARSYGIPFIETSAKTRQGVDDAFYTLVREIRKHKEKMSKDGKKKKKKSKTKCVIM
Method in brief: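 AsPC-1 cells (KRAS G12D), 2.0×10^4/well, treated overnight with compound (10 points, 10 μM–0.3 nM final) in RPMI 1640/10% FBS. Fixed cells immunostained for G12D-specific Ras and β-actin, with near-IR fluorescence read. Ras/actin ratio scaled DMSO = 0% and actin-only = 100%, and DC50 fitted by Sigmoid-Emax regression.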

[3] = test system: human G12D mutant KRAS-positive pancreatic cancer line AsPC-1; assay: Non-anchorage-dependent cell growth inhibition, spheroid 3D cell culture (Test Example 3); format: cell-based; details: AsPC-1 spheroid 3D culture, 6 days, CellTiter Glo 2.0
Method in brief: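 AsPC-1 spheroids, 5×10^2 cells per well on low-adhesion round-bottom plates in RPMI 1640/10% FBS, dosed next day at 10 or 6 points spanning 10 μM to 0.3 nM final for 6 days at 37° C., 5% CO2. Viability by CellTiter Glo 2.0 luminescence; IC50 by Sigmoid-Emax regression, DMSO 100% and cell-free medium 0%.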

[4] = Homo sapiens, ASPC1, AsPC-1 cells

Row | Structure (SMILES) | pIC50 [1, 4] | DC50 [2] [nM] | pIC50 ([3]; Homo sapiens, ASPC1, 144 h) | pIC50 ([1]; AsPC-1 cells) | pIC50 [3]
1 | Cc1ncsc1-c1ccc([C@H](CO)NC(=O)[C@@H]2C[C@@H](O)CN2C(=O)[C@H](C(C)C)n2cc(-c3ccc(COc4c(-c5c(C)c(F)cc6[nH]ncc56)c(C5CC5)cc5c(N[C@H]6CCNC6)nc(OC6CCOCC6)nc45)cc3)nn2)cc1 (atropisomer, axis not shown) [Example 3] | 7.80 | 47 | 8.15 | – | –
2 | CO[C@@H](C)COc1nc(N(C)[C@H]2CCNC2)c2cc(C3CC3)c(-c3c(C)c(F)cc4[nH]ncc34)c(OCc3ccc(-c4cn([C@H](C(=O)N5C[C@H](O)C[C@H]5C(=O)N[C@@H](CO)c5ccc(-n6cncn6)cc5)C(C)C)nn4)cc3)c2n1 (atropisomer, axis not shown) [Example 40] | 8.15 | 47 | 8.22 | – | –
3 | CCn1nccc1-c1ccc([C@H](CO)NC(=O)[C@@H]2C[C@@H](O)CN2C(=O)[C@H](C(C)C)n2cc(-c3ccc(COc4c(-c5c(C)c(F)cc6[nH]ncc56)c(C5CC5)cc5c(N(C)[C@H]6CCNC6)nc(OC[C@H](C)OC)nc45)cc3)nn2)nc1 (atropisomer, axis not shown) [Example 25] | 8.22 | 75 | 8.22 | – | –
4 | CO[C@@H](C)[C@H](C)Oc1nc(N(C)[C@H]2CCNC2)c2cc(C3CC3)c(-c3c(C)c(F)cc4[nH]ncc34)c(OCc3ccc(-c4cn([C@H](C(=O)N5C[C@H](O)C[C@H]5C(=O)N[C@@H](CO)c5ccc(-c6scnc6C)cc5)C(C)C)nn4)cc3)c2n1 (atropisomer, axis not shown) [Example 20] | 7.42 | 41 | 7.68 | – | –
5 | Cc1c(F)cc2[nH]ncc2c1-c1c(C2CC2)cc2c(N(C)[C@H]3CCNC3)cc(OC[C@@H]3CCCO3)nc2c1OCc1ccc(-c2cn([C@H](C(=O)N3C[C@H](O)C[C@H]3C(=O)N[C@@H](CO)c3ccc(-n4ccnc4C)cc3)C(C)C)nn2)cc1 (atropisomer, axis not shown) [Example 27] | 8.15 | 68 | 8.15 | – | –
6 | Cc1ncoc1-c1ccc([C@H](CO)NC(=O)[C@@H]2C[C@@H](O)CN2C(=O)[C@H](C(C)C)n2cc(-c3ccc(COc4c(-c5c(C)c(F)cc6[nH]ncc56)c(C5CC5)cc5c(N(C)[C@H]6CCNC6)nc(OC[C@H]6CCCO6)nc45)cc3)nn2)cc1 (atropisomer, axis not shown) [Example 31] | 7.70 | 59 | 7.74 | – | –
7 | CO[C@H](COc1nc(N(C)[C@H]2CCNC2)c2cc(C3CC3)c(-c3c(C)c(F)cc4[nH]ncc34)c(OCc3ccc(-c4cn([C@H](C(=O)N5C[C@H](O)C[C@H]5C(=O)N[C@@H](CO)c5ccc(-c6scnc6C)cc5)C(C)C)nn4)cc3)c2n1)C(F)F (atropisomer, axis not shown) [Example 43] | 8.15 | 41 | 8.22 | – | –
8 | CCn1nccc1-c1ccc([C@H](CO)NC(=O)[C@@H]2C[C@@H](O)CN2C(=O)[C@H](C(C)C)n2cc(-c3ccc(COc4c(-c5c(C)c(F)cc6[nH]ncc56)c(C5CC5)cc5c(N(C)[C@H]6CCNC6)nc(OC[C@H]6CCCO6)nc45)cc3)nn2)nc1 (atropisomer, axis not shown) [Example 32] | 7.43 | 51 | 7.62 | – | –
9 | Cc1ncsc1-c1ccc([C@H](CO)NC(=O)[C@@H]2C[C@@H](O)CN2C(=O)[C@H](C(C)C)n2cc(-c3ccc(COc4c(-c5c(C)c(F)cc6[nH]ncc56)c(C5CC5)cc5c(N(C)[C@H]6CCNC6)nc(OCC(C)(F)F)nc45)cc3)nn2)cc1 (atropisomer, axis not shown) [Example 36] | 7.68 | 82 | 7.72 | – | –

Continued, values first:

Row | pIC50 [1, 4] | DC50 [2] [nM] | pIC50 ([3]; Homo sapiens, ASPC1, 144 h) | pIC50 ([1]; AsPC-1 cells) | pIC50 [3] | Structure (SMILES)
10 | 8.05 | 29 | 8.10 | – | – | Cc1c(F)cc2[nH]ncc2c1-c1c(C2CC2)cc2c(N(C)[C@H]3CCNC3)nc(OC[C@H]3CCCO3)nc2c1OCc1ccc(-c2cn([C@H](C(=O)N3C[C@H](O)C[C@H]3C(=O)N[C@@H](CO)c3ccc(-n4cncn4)cc3)C(C)C)nn2)cc1 (atropisomer, axis not shown) [Example 41]
11 | 8.70 | 22 | 8.52 | – | – | CCn1nccc1-c1ccc([C@H](CO)NC(=O)[C@@H]2C[C@@H](O)CN2C(=O)[C@H](C(C)C)n2cc(-c3ccc(COc4c(-c5c(C)c(F)cc6[nH]ncc56)c(C5CC5)cc5c(N(C)[C@H]6CCNC6)nc(OC[C@@H]6CCCO6)nc45)cc3)nn2)cc1 (atropisomer, axis not shown) [Example 26]
12 | 8.10 | 35 | 8.15 | – | – | Cc1ncsc1-c1ccc([C@H](CO)NC(=O)[C@@H]2C[C@@H](O)CN2C(=O)[C@H](C(C)C)n2cc(-c3ccc(COc4c(-c5c(C)c(F)cc6[nH]ncc56)c(C5CC5)cc5c(N[C@H]6CCNC6)cc(OC6CCOCC6)nc45)cc3)nn2)cc1 [Example 4]
13 | 7.35 | 33 | 7.62 | – | – | Cc1ncsc1-c1ccc([C@H](CO)NC(=O)[C@@H]2C[C@@H](O)CN2C(=O)[C@H](C(C)C)n2cc(-c3ccc(COc4c(-c5c(C)c(F)cc6[nH]ncc56)c(C5CC5)cc5c(N(C)[C@H]6CCNC6)nc(OCC(C)(C)F)nc45)cc3)nn2)cc1 (atropisomer, axis not shown) [Example 33]
14 | 7.24 | 37 | 7.41 | – | – | COCCCOc1nc(N(C)[C@H]2CCNC2)c2cc(C3CC3)c(-c3c(C)c(F)cc4[nH]ncc34)c(OCc3ccc(-c4cn([C@H](C(=O)N5C[C@H](O)C[C@H]5C(=O)N[C@@H](CO)c5ccc(-c6scnc6C)cc5)C(C)C)nn4)cc3)c2n1 (atropisomer, axis not shown) [Example 39]
15 | 8.40 | 10 | 7.82 | – | – | CO[C@@H](C)COc1cc(N2C[C@@H]3C[C@H]2CN3)c2cc(C3CC3)c(-c3c(C)c(F)cc4[nH]ncc34)c(OCc3ccc(-c4cn([C@H](C(=O)N5C[C@H](O)C[C@H]5C(=O)N[C@@H](CO)c5ccc(-c6scnc6C)cc5)C(C)C)nn4)cc3)c2n1 [Example 55]
16 | 8.05 | 40 | 7.64 | – | – | Cc1ncsc1-c1ccc([C@H](CO)NC(=O)[C@@H]2C[C@@H](O)CN2C(=O)[C@H](C(C)C)n2cc(-c3ccc(COc4c(-c5c(C)c(F)cc6[nH]ncc56)c(C5CC5)cc5c(N[C@@H]6CNC[C@@H]6O)nc(OC6CCOCC6)nc45)cc3)nn2)cc1 (atropisomer, axis not shown) [Example 7]
17 | 7.80 | 26 | 7.85 | – | – | CO[C@H](C)COc1nc(N(C)[C@H]2CCNC2)c2cc(C3CC3)c(-c3c(C)c(F)cc4[nH]ncc34)c(OCc3ccc(-c4cn([C@H](C(=O)N5C[C@H](O)C[C@H]5C(=O)N[C@@H](CO)c5ccc(-c6scnc6C)cc5)C(C)C)nn4)cc3)c2n1 (atropisomer, axis not shown) [Example 16]
18 | 7.89 | 31 | 7.92 | – | – | Cc1ncsc1-c1ccc([C@H](CO)NC(=O)[C@@H]2C[C@@H](O)CN2C(=O)[C@H](C(C)C)n2cc(-c3ccc(COc4c(-c5c(C)c(F)cc6[nH]ncc56)c(C5CC5)cc5c(N(C)[C@H]6CCNC6)nc(OC[C@@H]6CCOC6)nc45)cc3)nn2)cc1 (atropisomer, axis not shown) [Example 23]
19 | 7.82 | 38 | 7.80 | – | – | Cc1ncsc1-c1ccc([C@H](CO)NC(=O)[C@@H]2C[C@@H](O)CN2C(=O)[C@H](C(C)C)n2cc(-c3ccc(COc4c(-c5c(C)c(F)cc6[nH]ncc56)c(C5CC5)cc5c(N(C)[C@H]6CCNC6)nc(OC[C@@H](C)F)nc45)cc3)nn2)cc1 (atropisomer, axis not shown) [Example 48]
20 | 8.15 | 13 | 8.05 | – | – | Cc1ncsc1-c1ccc([C@H](CO)NC(=O)[C@@H]2C[C@@H](O)CN2C(=O)[C@H](C(C)C)n2cc(-c3ccc(COc4c(-c5c(C)c(F)cc6[nH]ncc56)c(C5CC5)cc5c(O[C@H]6CCNC6)nc(OC6CCOCC6)nc45)cc3)nn2)cc1 (atropisomer, axis not shown) [Example 1]
21 | 7.70 | 18 | 7.80 | – | – | Cc1ncsc1-c1ccc([C@H](CO)NC(=O)[C@@H]2C[C@@H](O)CN2C(=O)[C@H](C(C)C)n2cc(-c3ccc(COc4c(-c5c(C)c(F)cc6[nH]ncc56)c(C5CC5)cc5c(N(C)[C@H]6CCNC6)nc(OC6CCOCC6)nc45)cc3)nn2)cc1 (atropisomer, axis not shown) [Example 8]
22 | – | 28 | – | 7.77 | 7.14 | CO[C@@H](C)COc1cc(N(C)[C@H]2CCNC2)c2cc(C3CC3)c(-c3c(C)c(F)cc4[nH]ncc34)c(OCc3ccc(-c4cn([C@H](C(=O)N5C[C@H](O)C[C@H]5C(=O)N[C@@H](CO)c5ccc(-c6scnc6C)cc5)C(C)C)nn4)cc3)c2n1 [Example 56]
23 | 7.33 | 33 | 7.28 | – | – | CO[C@@H](C)COc1nc(N(C)[C@H]2CCNC2)c2cc(C3CC3)c(-c3c(C)c(F)cc4[nH]ncc34)c(OCc3ccc(-c4cn([C@H](C(=O)N5C[C@H](O)C[C@H]5C(=O)N[C@@H](CO)c5ccc(-n6ccnc6C)cc5)C(C)C)nn4)cc3)c2n1 (atropisomer, axis not shown) [Example 21]
